# Values of other authors as cited in PubChem BioAssay AID1259409 (Chemical Carcinogenesis Research Information System (CCRIS), 2018).
# Test system: rodent chemically induced tumor inhibition, incidence and multiplicity
# Assay: CCRIS tumor inhibitor studies
# Conditions: Dose [Inhibitor]: 0, Route [Inhibitor]: ORAL, Species: RAT, Promoter: NONE USED
structure (smiles),measurement,setting,value
CCCCCCCCCCCCC(=O)COC1=C(O)C(=O)O[C@@H]1[C@@H](O)CO,"tumour outcome (control, treated, inhibition, significance)","Carcinogen: 2-AMINO-1-METHYL-6-PHENYLIMIDAZO[4,5-B]PYRIDINE, 105650-23-5, 1% IN DIET FOR 52 WK CONCURRENTLY WITH CARCINOGEN TREATMENT (STUDY DURATION: 52 WK), Strain/Sex: F344/FEMALE, Target Tissue: Type of Lesion: LARGE INTESTINE: ADENOMA OR CARCINOMA, Dose [Carcinogen]: 0.02% IN DIET FOR 52 WK","2/18 (11%), 1/20 (5%), 55%, not significant"
same,"tumour outcome (control, treated, inhibition, significance)","Carcinogen: 2-AMINO-1-METHYL-6-PHENYLIMIDAZO[4,5-B]PYRIDINE, 105650-23-5, 1% IN DIET FOR 52 WK CONCURRENTLY WITH CARCINOGEN TREATMENT (STUDY DURATION: 52 WK), Strain/Sex: F344/FEMALE, Target Tissue: Type of Lesion: MAMMARY GLAND: ADENOCARCINOMA, Dose [Carcinogen]: 0.02% IN DIET FOR 52 WK","8/20 (40%), 5/21 (24%), 40%, not significant"
same,"tumour outcome (control, treated, inhibition, significance)","Carcinogen: DIETHYLNITROSAMINE, 55-18-5, N-METHYL-N-NITROSOUREA, 684-93-5, N-BUTYL-N-(4-HYDROXYBUTYL)NITROSAMINE, 3817-11-6, DIMETHY, Carcinogen: DIETHYLNITROSAMINE, 55-18-5, N-METHYL-N-NITROSOUREA, 684-93-5, N-BUTYL-N-(4-HYDROXYBUTYL)NITROSAMINE, 3817-11-6, DIMETHY, 1% IN THE DIET FOR 24 WK BEGINNING 1 D POST CARCINOGEN TREATMENT (STUDY DURATION: 28 WK), Strain/Sex: F344/MALE, Target Tissue: Type of Lesion: LARGE INTESTINE: CARCINOMA, Dose [Carcinogen]: 100 MG/KG BW DEN ONCE FOLLOWED BY 20 MG/KG BW MNU 4 TIMES AND 0.05% BBN IN DRINKING WATER DURING FIRST 2 WK THEN 40 MG/K","7%, 0%, 100%, not significant"
same,"tumour outcome (control, treated, inhibition, significance)","Carcinogen: DIETHYLNITROSAMINE, 55-18-5, N-METHYL-N-NITROSOUREA, 684-93-5, N-BUTYL-N-(4-HYDROXYBUTYL)NITROSAMINE, 3817-11-6, DIMETHY, Carcinogen: DIETHYLNITROSAMINE, 55-18-5, N-METHYL-N-NITROSOUREA, 684-93-5, N-BUTYL-N-(4-HYDROXYBUTYL)NITROSAMINE, 3817-11-6, DIMETHY, 1% IN THE DIET FOR 24 WK BEGINNING 1 DAY POST CARCINOGEN TREATMENT (STUDY DURATION: 28 WK ), Strain/Sex: F344/MALE, Target Tissue: Type of Lesion: URINARY BLADDER: CARCINOMA, Dose [Carcinogen]: 100 MG/KG BW DEN ONCE FOLLOWED BY 20 MG/KG BW MNU 4 TIMES AND 0.05% BBN IN DRINKING WATER DURING FIRST 2 WK THEN 40 MG/K","7%, 0%, 100%, not significant"
same,"tumour outcome (control, treated, inhibition, significance)","Carcinogen: DIETHYLNITROSAMINE, 55-18-5, N-METHYL-N-NITROSOUREA, 684-93-5, N-BUTYL-N-(4-HYDROXYBUTYL)NITROSAMINE, 3817-11-6, DIMETHY, Carcinogen: DIETHYLNITROSAMINE, 55-18-5, N-METHYL-N-NITROSOUREA, 684-93-5, N-BUTYL-N-(4-HYDROXYBUTYL)NITROSAMINE, 3817-11-6, DIMETHY, 1% IN THE DIET FOR 24 WK BEGINNING 1 DAY POST CARCINOGEN TREATMENT (STUDY DURATION: 28 WK), Strain/Sex: F344/MALE, Target Tissue: Type of Lesion: LARGE INTESTINE: ADENOMA, Dose [Carcinogen]: 100 MG/KG BW DEN ONCE FOLLOWED BY 20 MG/KG BW MNU 4 TIMES AND 0.05% BBN IN DRINKING WATER DURING FIRST 2 WK THEN 40 MG/K","27%, 13%, 52%, not significant"
same,"tumour outcome (control, treated, inhibition, significance)","Carcinogen: DIETHYLNITROSAMINE, 55-18-5, N-METHYL-N-NITROSOUREA, 684-93-5, N-BUTYL-N-(4-HYDROXYBUTYL)NITROSAMINE, 3817-11-6, DIMETHY, Carcinogen: DIETHYLNITROSAMINE, 55-18-5, N-METHYL-N-NITROSOUREA, 684-93-5, N-BUTYL-N-(4-HYDROXYBUTYL)NITROSAMINE, 3817-11-6, DIMETHY, 1% IN THE DIET FOR 24 WK BEGINNING 1 DAY POST CARCINOGEN TREATMENT (STUDY DURATION: 28 WK), Strain/Sex: F344/MALE, Target Tissue: Type of Lesion: SMALL INTESTINE: ADENOMA, Dose [Carcinogen]: 100 MG/KG BW DEN ONCE FOLLOWED BY 20 MG/KG BW MNU 4 TIMES AND 0.05% BBN IN DRINKING WATER DURING FIRST 2 WK THEN 40 MG/K","33%, 20%, 39%, not significant"
same,"tumour outcome (control, treated, inhibition, significance)","Carcinogen: DIETHYLNITROSAMINE, 55-18-5, N-METHYL-N-NITROSOUREA, 684-93-5, N-BUTYL-N-(4-HYDROXYBUTYL)NITROSAMINE, 3817-11-6, DIMETHY, Carcinogen: DIETHYLNITROSAMINE, 55-18-5, N-METHYL-N-NITROSOUREA, 684-93-5, N-BUTYL-N-(4-HYDROXYBUTYL)NITROSAMINE, 3817-11-6, DIMETHY, 1% IN THE DIET FOR 24 WK BEGINNING 1 DAY POST CARCINOGEN TREATMENT (STUDY DURATION: 28 WK), Strain/Sex: F344/MALE, Target Tissue: Type of Lesion: SMALL INTESTINE: CARCINOMA, Dose [Carcinogen]: 100 MG/KG BW DEN ONCE FOLLOWED BY 20 MG/KG BW MNU 4 TIMES AND 0.05% BBN IN DRINKING WATER DURING FIRST 2 WK THEN 40 MG/K","7%, 20%, -185%, not significant"
same,"tumour outcome (control, treated, inhibition, significance)","Carcinogen: DIETHYLNITROSAMINE, 55-18-5, N-METHYL-N-NITROSOUREA, 684-93-5, N-BUTYL-N-(4-HYDROXYBUTYL)NITROSAMINE, 3817-11-6, DIMETHY, Carcinogen: DIETHYLNITROSAMINE, 55-18-5, N-METHYL-N-NITROSOUREA, 684-93-5, N-BUTYL-N-(4-HYDROXYBUTYL)NITROSAMINE, 3817-11-6, DIMETHY, 1% IN THE DIET FOR 24 WK BEGINNING 1 DAY POST CARCINOGEN TREATMENT (STUDY DURATION: 28 WK), Strain/Sex: F344/MALE, Target Tissue: Type of Lesion: THYROID: CARCINOMA, Dose [Carcinogen]: 100 MG/KG BW DEN ONCE FOLLOWED BY 20 MG/KG BW MNU 4 TIMES AND 0.05% BBN IN DRINKING WATER DURING FIRST 2 WK THEN 40 MG/K","7%, 0%, 100%, not significant"
